Data as given in US20250327140A1, “A METHOD OF DETERMINING THE DOSE OF PSYCHEDELICS” (priority 2022, published 2025).

Experiments:
[1] = tested on: ABCF1 promoter (eGFP reporter); test: DC2.4 cells transfected with ABCF1-GFP reporter construct, drug screening by fluorescence; type: cell-based; conditions: for induction of ABCF1-EGFP-IRES (FIG. 11): DC2.4 cells with ABCF1 GFP construct
Description: Cells for use in a high-throughput cell-based screening assay to screen for drugs and genes that stimulate ABCF1 expression were created. In particular, the cells comprise a construct comprising the ABCF1 promoter linked to the sequence encoding eGFP. In the assay, drugs/compositions may be screened for modulating expression of ABCF1 by measuring fluorescence. • 1. DC2.4 cell line was used for the ABCF1-GFP vector (FIG. 7) transfection. DC 2.4 cell line was used as these cells have low endogenous ABCF1 expression. • 2. After 3 days, based on the fluorescent signal, those transfected cells were single cell sorted using cell sorter, compared with DC2.4 cell line without transfection as a negative control. (Those cells with some fluorescent signals were transfected successfully as expected) • 3. Those single cells were collected in a 96 well plate and grown around 2 weeks using DMEM+10% FBS+1% PS, and 12 colonies were picked. • 4. Expended 12 colonies into 24 well plate to grow continuously around 2 weeks with DMEM+10% FBS+1% PS+[…] Hygromycin (selection antibiotics which inserted in the vector) to keep the majority of cells which containing the vector. • 5. 5 colonies were growing well and checked the colonies ABCF1 expression level (checked the GFP reporter in between negative control and positive control (50 uM and 100 μM) to see which colonies is the best to be drug screening cell). • See FIGS. 8 to 11.

ABCF1 [2] = test: real time RT-PCR specific for ABCF1 and IL-4 in RAW macrophages incubated with Escitalopram; type: cell-based, murine; conditions: 0.3 mM, 1 hour
Procedure: RAW macrophages were plated at 1×10^5 cells/well and cultured for 2 days. The cells were incubated with 0.3 mM Escitalopram for 1 hour, and then harvested for total RNA, which was extracted for real time RT-PCR specific for ABCF1 and IL-4. CT values were normalized with CT value for the housekeeping gene from the DMSO control.

ABCF1 [3] = test: qPCR of ABCF1 transcription in macrophage cell line RAW264.7, dose response with psychedelics; type: cell-based, murine; conditions: RAW264.7, 10 nM, 100 nM, 500 nM, 2 hours post treatment
Procedure: • 1. Macrophage cell line RAW264.7 (ATCC) were grown to 80% confluency in growth media (DMEM+10% FBS+glutamine). • 2. Dilutions of the drugs were made at desired final concentrations for a Dose response experiment. The concentrations' used for this experiment are: 10 nM, 100 nM, 500 nM for Psilocin, Psylocibin, 4-Acetoxy-N, N-dimthyltryptamine, O-Acetyl Psilocin Fumerate, and 4-acetoxyindole. • 3. Untreated cells were used as negative control and Escitalopram at 0.3 mM was used as a positive control to activate ABCF1 expression for all the experiments. Analysis by qPCR:
• 1. 2 hours post treatment with drugs, the reaction was stopped by removing the media with the drug. Cells were then collected and RNA was isolated from these. • 2. After checking the quality of the RNA, cDNA was generated and qPCR was run with ABCF1 primers as the target gene and GAPDH as the house keeping gene. • 3. Normalized against the expression level of GAPDH, the fold change expression level of ABCF1 was calculated and tabulated for all treatment conditions.

Row | SMILES | induction of ABCF1-EGFP-IRES (FIG. 11) [1] | ABCF1 upregulation (FIG. 10) ([1]; after 1 hour drug treatment) | difference in ABCF1 and IL-4 expression after drug treatment (macrophage polarization) (ABCF1 [2]; consistent in 3 separate experiments) | ABCF1 induction in a macrophage cell line (ABCF1 [2]; real time RT-PCR) | ABCF1 transcription (fold change vs GAPDH) (ABCF1 [3])
1 | CC(=O)Oc1cccc2[nH]ccc12 [AOI, 4-acetoxyindole] | induction | upregulates | – | – | –
2 | CN(C)CCC[C@@]1(c2ccc(F)cc2)OCc2cc(C#N)ccc21 [Escitalopram] | induction | – | consistent with polarization towards an M2-like phenotype | Induces | –
3 | CN(C)CCc1c[nH]c2cccc(O)c12 [psylocin, Psilocin] | – | – | – | – | upregulate
